These results are taken from patent publication US20100113391A1, “BICYCLIC HETEROCYCLIC COMPOUND” (Astellas Pharma Inc., priority 2007, published 2010).

Broadly, the % Inhibition is the percentage by which the read-out fell short of the control. As usually defined, the inhibition is the drop in the measured response relative to a control, in per cent. High values mean a response far below the control, low ones a response near the control.

Test [1] relates to rat platelets (PRP), ADP-induced aggregation. Nature of the test: Rat platelet aggregation inhibition test (ex vivo after oral administration). Format: in vivo. To be noted: male SD rat, 30 mg/kg orally, blood collected 2 hours after administration; ADP-induced aggregation of PRP. The method, then: Test Method (3) Rat Platelet Aggregation Inhibition Test and Measurement of Test Compound Concentration in Plasma
An aqueous sodium hydroxide solution and the same amount of a 1% aqueous methyl cellulose solution were added to the compound of the invention to prepare a 0.5% aqueous methyl cellulose solution or a suspension solution. This preparation solution was orally administered to a male SD rat (5 to 7 weeks old) which has been fasted over 12 hours using a sonde at a dose of 30 mg/kg. After 2 hours later since the administration of the compound, using a syringe in which 1/10 vol of a 3.8% sodium citrate solution is contained, a blood was collected. In the same manner as in Test Method (1), a PPP and a PRP having the number of the platelets as 3×10^8 /ml were prepared. 90 μl of the PRP having the number of the platelets of 3×10^8 /ml was incubated at 37° C. for 1 minute and then 10 μl of ADP (50 μM) was added thereto to cause platelet aggregation, thereby recording a variation in transmitted light for 5 minutes. An inhibition rate was calculated using an area under the platelet aggregation curve as an index.

Test [2] relates to human platelets (platelet rich plasma), ADP-induced aggregation. Nature of the test: Human platelet aggregation inhibitory activity measurement test (ADP-induced, PRP). The following applies: compound 10 μM (final concentration); ADP-induced aggregation of human PRP; area under the platelet aggregation curve. Format: cell-based. The method, then:
Test Method (1) Human Platelet Aggregation Inhibitory Activity Measurement Test
Using a syringe in which 1/10 vol of a 3.8% sodium citrate solution is contained, blood was collected from a healthy volunteer (adult). The blood was subjected to a centrifugation at 160×g for 10 minutes and a supernatant platelet rich plasma (PRP) was separated. The remaining blood of which the PRP has been collected was subjected to a centrifugation at 1,800×g for 10 minutes and a platelet poor plasma (PPP) was separated. The number of the platelets in the PRP was measured using an automatic blood cell counter (MEK-6258, Nihon Kohden Corporation). After that, the PPP was added to the PRP to adjust the number of the platelets to 3×10^8 /ml, thereby using the platelets for the following tests. As an ADP, which is a platelet aggregating agent, a product manufactured by MC Medical Inc. was used. The platelet aggregation was measured using a platelet aggregometer (MCM Hematracer 212; MC medical Inc.). That is, 80 μl of the PRP having the number of the platelets of 3×10^8 /ml and 10 μl of a test compound solution or solvent (10% DMSO or 10% DMSO-9% hydroxypropyl-β-cyclodextrin-4.5% d-mannitol) were incubated at 37° C. for 1 minute and then 10 μl of ADP (50 μM) was added to the mixture to cause platelet aggregation, thereby recording a variation in transmitted light for 5 minutes. An inhibition rate was calculated using an area under the platelet aggregation curve as an index. In addition, Ex represents a number of the compounds of Examples.

Test [3] addresses T1, Human P2Y12 (Homo sapiens, UniProt Q9H244).
T1 construct: expressed in transfected cells
Put plainly: Substitution test for the binding between human P2Y12 and 2-methylthio-ADP (2-MeS-ADP). To be noted: compound 30 nM (final concentration); [33P]-2-MeS-ADP binding to P2Y12 protein-expressing C6-15 cell membrane fraction. The procedure: Test Method (2) Substitution Test for the binding between Human P2Y12 and 2-methylthio-ADP(2-MeS-ADP)
In a 10 cm petri dish, C6-15 cells were spread to be 1×10^6 of cells by using a DMEM culture medium and cultured for 1 day. After that, genes of plasmids such as 8 μg of pEF-BOS-dhfr-human P2Y12 and 0.8 μg of pEF-BOS-neo (Nucleic Acid Res., 18, 5322, 1990) were introduced to the cells using a transfection reagent (LipofectAMINE 2000; manufactured by GIBCO BRL Inc.).
After 24 hours since the above-mentioned gene introduction operation had been completed, the cells to which the genes were introduced were recovered and suspended in a DMEM culture medium containing 0.6 mg/ml of G418 (manufactured by GIBCO BRL Inc.). After that, the cells were serially diluted and spread on a 10 cm petri dish. Colonies appeared after 2 weeks later were individually collected and used in the following tests as P2Y12 protein-expressing C6-15 cells (WO 02/36631, Mol. Pharmacol., 60, 432, 2001).
The P2Y12 protein-expressing C6-15 cells were cultured and then the cells were recovered. The cells were washed with PBS, suspended in 20 mM Tris-HCl (pH 7.4) containing 5 mmol/l EDTA and Complete™ (manufactured by Boehringer Mannheim) which is a protease inhibitor cocktail set, and homogenized by Polytron. The cells were subjected to an ultracentrifugation and a precipitate is suspended in 50 mM Tris-HCl (pH 7.4) containing 1 mM of EDTA, 100 mM NaCl, and Complete™ to perform membrane fraction.
To 100 μl of the P2Y12 protein-expressing C6-15 cell membrane fraction (100 μg/ml) produced as mentioned above, 1.5 μl of a test compound solution and 50 μl of 0.75 nM [^33P]-2-MeS-ADP (2100 Ci/mmol, manufactured by PerkinElmer Inc.) were added. The mixture was incubated in 50 mM Tris-HCl (pH 7.4) containing 100 mM NaCl and 50 mM MgCl2 at room temperature for 1 hour, and then recovered by cell harvest on a glass filter. Microscintillators were added to the glass filter and the radioactive activity was measured by a liquid scintillation counter. In addition, simultaneously, the radioactivity in the case where only a solvent is added to the above-mentioned test and in the case where 1.5 μl of 250 μM ADP is added thereto were measured respectively as the total binding amount and the nonspecific binding amount. The total binding amount and the nonspecific binding amount were set respectively as the inhibition rate of 0% and the inhibition rate of 100% to calculate the inhibition rate (%) of the test compound.

T1 sequence (Q9H244 whole entry): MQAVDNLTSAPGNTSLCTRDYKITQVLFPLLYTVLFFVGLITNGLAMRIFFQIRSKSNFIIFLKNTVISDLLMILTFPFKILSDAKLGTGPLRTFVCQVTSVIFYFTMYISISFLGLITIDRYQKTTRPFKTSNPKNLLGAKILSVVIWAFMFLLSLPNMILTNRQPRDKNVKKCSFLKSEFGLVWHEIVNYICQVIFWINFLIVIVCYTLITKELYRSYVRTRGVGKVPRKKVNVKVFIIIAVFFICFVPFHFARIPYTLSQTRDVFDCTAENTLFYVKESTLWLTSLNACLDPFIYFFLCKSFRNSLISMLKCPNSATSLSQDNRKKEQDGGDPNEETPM

In the case of `O=C(O)/C=C/Cn1c(=O)c2cc(F)c(NC3CCCCC3)cc2n(C2CCCC2)c1=O` [Example 65], the “% Inhibition” value in test [1] turned out to be 56%. Also, 10 µM produced 86% inhibition in test [2]. As to `CC(CCn1c(=O)c2cc(F)c(NC3CCCCC3)cc2n(C2CCCC2)c1=O)C(=O)O` (centres unmarked) [Example 114], the “% Inhibition” value in test [1] stood at 90%. For the same molecule, testing at 0.03 µM in test [3] gave an inhibition of 71%. Further, at 10 µM the inhibition in test [2] was 91%. As for `O=C(O)COn1c(=O)c2cc(F)c(NC3CCCCC3)cc2n(C2CCCC2)c1=O` [Example 24, {[7-(cyclohexylamino)-1-cyclopentyl-6-fluoro-2,4-dioxo-1,4-dihydroquinazolin-3(2H)-yl]oxy}acetic acid], testing at 0.03 µM in test [3] gave an inhibition of 60%. Also, in test [2], the inhibition at 10 µM was found to be 89%. In the case of `O=C(O)COc1cccc(Cn2c(=O)c3cc(F)c(NC4CCCCC4)cc3n(C3CCCC3)c2=O)c1` [Example 157], the inhibition at 0.03 µM in test [3] is 67%. For `CC(C)n1c(=O)n(CCCC(=O)O)c(=O)c2cc(F)c(NC3CCCCC3)cc21` [Example 77], in test [2], the inhibition at 10 µM came to 88%. In turn, `O=C(O)CCCNn1c(=O)c2cc(F)c(NC3CCCCC3)cc2n(C2CCCC2)c1=O` [Example 155] had an inhibition at 0.03 µM in test [3] of 72%. Moreover, in test [2], the inhibition at 10 µM came out at 93%. In the case of `O=C(O)Cn1c(=O)c2cc(F)c(NCC3CC3)cc2n(C2CCCC2)c1=O` [Example 69], the inhibition at 10 µM in test [2] came out at 50%. Molecule `O=C(O)CNC(=O)Cn1c(=O)c2cc(F)c(NC3CCCCC3)cc2n(C2CCCC2)c1=O` [Example 42] displayed an inhibition at 0.03 µM in test [3] of 56%. Also, the inhibition at 10 µM in test [2] stood at 75%.
